# From US8802664B2 (Bioproject, priority 2010, dated 2014)
# Where a name gives a salt, the structure may show the parent alone.
# Columns and labels:
# human H4 receptor = target: T1, human H4 receptor (Homo sapiens, UniProt Q9H3N8); experiment: [3H]Histamine binding on membranes of CHO cells stably expressing human H4 receptor
# T1 construct: expressed in transfected cells
# Procedure, shortened: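 Nonspecific binding defined with 10 μM JNJ 7777120. Bound radioactivity collected on polyethyleneimine-treated GF/B filters and counted by liquid scintillation.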
# T1 sequence (Q9H3N8 whole entry): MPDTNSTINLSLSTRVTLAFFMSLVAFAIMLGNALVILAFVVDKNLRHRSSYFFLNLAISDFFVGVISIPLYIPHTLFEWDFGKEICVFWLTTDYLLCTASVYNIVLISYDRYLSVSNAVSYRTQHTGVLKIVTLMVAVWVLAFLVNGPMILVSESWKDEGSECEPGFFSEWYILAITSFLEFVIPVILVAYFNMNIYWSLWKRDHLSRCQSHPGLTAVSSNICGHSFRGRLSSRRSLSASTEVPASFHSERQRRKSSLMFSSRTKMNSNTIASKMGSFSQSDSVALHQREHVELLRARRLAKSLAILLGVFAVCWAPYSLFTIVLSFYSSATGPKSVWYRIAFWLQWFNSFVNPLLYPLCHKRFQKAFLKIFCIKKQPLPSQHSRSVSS
SMILES,Ki or IC50 activity class (human H4 receptor),melting point
"CN1CCC(NC(c2cccc(OCc3ccccc3)c2)c2nc3ccccc3[nH]2)CC1 (stereo not drawn) [Example 65, [(1H-benzimidazol-2-yl)(3-benzyloxyphenyl)methyl](1-methylpiperidin-4-yl)amine]",< 30 nM,78 °C
"Cc1ccc(C(NC2CCN(C)CC2)c2nc3ccccc3[nH]2)cc1 (stereo not drawn) [Example 273, [(1H-benzimidazol-2-yl)-p-tolyl-methyl](1-methylpiperidin-4-yl)amine]",< 1000 nM,183 °C
"CN1CCC(NC(c2cccc(-c3ccccc3)c2)c2nc3ccccc3[nH]2)CC1 (stereo not drawn) [Example 94, [(1H-benzimidazol-2-yl)biphenyl-3-ylmethyl](1-methylpiperidin-4-yl)amine]",< 30 nM,98 °C
"CN1CCC(OC(c2cccc(C#CCCCN)c2)c2nc3ccccc3[nH]2)CC1 (single isomer, unassigned) [Example 566, 5-{3-[(1H-benzimidazol-2-yl)(1-methylpiperidin-4-yloxy)methyl]phenyl}pent-4-ynylamine]",< 30 nM,82 °C
"CN1CCC(NC(c2ccc[nH]2)c2nc3ccccc3s2)CC1 (stereo not drawn) [Example 58, [benzothiazol-2-yl(1H-pyrrol-2-yl)methyl](1-methylpiperidin-4-yl)amine]",< 300 nM,125 °C
"CN1CCC(OC(c2cccc(C#CCCNC(=N)NC(=O)OC(C)(C)C)c2)c2nc3ccccc3s2)CC1 (stereo not drawn) [Example 399, N-tert-butoxycarbonyl-N′-(4-{3-[(benzothiazol-2-yl)(1-methylpiperidin-4-yloxy)methyl]phenyl}but-3-ynyl)guanidine]",< 300 nM,120 °C
CCOC(=O)NCCCC#Cc1ccc(F)c(C(OC2CCN(C)CC2)c2nc3ccccc3[nH]2)c1 (stereo not drawn) [Example 560],< 300 nM,87 °C
"CN1CCC(OC(c2cccc(OCc3ccccn3)c2)c2nc3ccccc3[nH]2)CC1 (stereo not drawn) [Example 310, 2-{(1-methylpiperidin-4-yloxy)[3-(pyridin-2-ylmethoxy)phenyl]methyl}-1H-benzimidazole]",< 300 nM,77 °C
"COc1ccc(-c2cccc(C(OC3CCN(C)CC3)c3nc4ccccc4[nH]3)c2)cc1 (stereo not drawn) [Example 183, 2-[(4′-methoxybiphenyl-3-yl)(1-methylpiperidin-4-yloxy)methyl]-1H-benzimidazole]",< 300 nM,92 °C
"CC(O)CSc1cccc(C(OC2CCN(C)CC2)c2nc3ccccc3[nH]2)c1 (stereo not drawn) [Example 247, 1-{3-[(1H-benzimidazol-2-yl)(1-methylpiperidin-4-yloxy)methyl]phenylsulfanyl}propan-2-ol]",< 300 nM,120 to 122 °C
"CN1CCC(OC(c2cccc(N)c2)c2nc3ccccc3[nH]2)CC1 (stereo not drawn) [Example 224, 3-[(1H-benzimidazol-2-yl)(1-methylpiperidin-4-yloxy)methyl]phenylamine]",< 300 nM,100 °C
"CN1CCC(OC(c2cccc(CCCCCCNC(=N)NC(=O)OC(C)(C)C)c2)c2nc3ccccc3[nH]2)CC1 (stereo not drawn) [Example 364, N-tert-butoxycarbonyl-N′-(6-{3-[(1H-benzimidazol-2-yl)(1-methylpiperidin-4-yloxy)methyl]phenyl}hexyl)guanidine]",< 1000 nM,90 °C
"CN1CCC(OC(c2cccc(-c3ccccc3F)c2)c2nc3ccccc3[nH]2)CC1 (stereo not drawn) [Example 142, 2-[(2′-fluorobiphenyl-3-yl)(1-methylpiperidin-4-yloxy)methyl]-1H-benzimidazole]",< 300 nM,90 °C
"COc1ccc(F)c(C(OC2CCN(C)CC2)c2nc3ccccc3[nH]2)c1F (stereo not drawn) [Example 534, 2-[(2,6-difluoro-3-methoxyphenyl)(1-methylpiperidin-4-yloxy)methyl]-1H-benzimidazole]",< 300 nM,185 °C
CN1CCC(OC(c2nc3ccccc3[nH]2)c2cc(Br)ccc2F)CC1 (stereo not drawn) [Example 555],< 30 nM,232 °C
"Cc1cccc(C(OC2CCN(C)CC2)c2nc3ccccc3[nH]2)c1 (stereo not drawn) [Example 164, 2-[(1-methylpiperidin-4-yloxy)(m-tolyl)methyl]-1H-benzimidazole]",< 300 nM,119 °C
"CN1CCC(OC(c2cccc(SCC3=NCCN3)c2)c2nc3ccccc3[nH]2)CC1 (stereo not drawn) [Example 468, 2-[[3-(4,5-dihydro-1H-imidazol-2-ylmethylsulfanyl)phenyl](1-methylpiperidin-4-yloxy)methyl]-1H-benzimidazole]",< 300 nM,62 °C
"Cc1cc(F)cc(C(NC2CCN(C)CC2)c2nc3ccccc3s2)c1 (stereo not drawn) [Example 44, [benzothiazol-2-yl(3-fluoro-5-methylphenyl)methyl](1-methylpiperidin-4-yl)amine]",< 1000 nM,102 °C
CN1CCC(OC(c2nc3ccccc3[nH]2)c2c(O)cccc2F)CC1 (stereo not drawn) [Example 582],< 30 nM,129 °C
CCOC(=O)NCCCC#Cc1ccc(F)c(C(OC2CCN(C)CC2)c2nc3cc(F)ccc3[nH]2)c1 (stereo not drawn) [Example 570],< 300 nM,95 °C
"CC(C)Oc1cccc(C(NC2CCN(C)CC2)c2nc3ccccc3[nH]2)c1 (stereo not drawn) [Example 77, [(1H-benzimidazol-2-yl)(3-isopropoxyphenyl)methyl](1-methylpiperidin-4-yl)amine]",< 300 nM,75 °C

SMILES,Ki or IC50 activity class (human H4 receptor),melting point
CCOc1ccc(F)c(C(OC2CCN(C)CC2)c2nc3ccccc3[nH]2)c1F (stereo not drawn) [Example 535],< 300 nM,130 °C
"CN1CCC(COC(c2cccc(Br)c2)c2nc3ccccc3[nH]2)C1 (stereo not drawn) [Example 414, 2-[(3-bromo-phenyl)(1-methylpyrrolidin-3-ylmethoxy)methyl]-1H-benzimidazole]",< 300 nM,61 °C
Cc1ccc(C(OC2CCN(C)CC2)c2nc3ccccc3[nH]2)cc1Cl (stereo not drawn) [Example 552],< 300 nM,86 °C
CN1CCC(OC(c2nc3ccccc3[nH]2)c2c(O)cccc2Cl)CC1 (stereo not drawn) [Example 594],< 30 nM,145 °C
Cc1ccc(C(OC2CCN(C)CC2)c2nc3ccccc3[nH]2)c(F)c1F (stereo not drawn) [Example 551],< 300 nM,80 °C
CN1CCC(OC(c2nc3ccccc3[nH]2)c2cc(F)cc(F)c2O)CC1 (stereo not drawn) [Example 579],< 1000 nM,142 °C
"CN1CCC(OC(c2nc3ccccc3[nH]2)c2cc(OC(F)(F)F)ccc2F)CC1 (stereo not drawn) [Example 433, 2-[(2-fluoro-5-trifluoromethoxyphenyl)(1-methylpiperidin-4-yloxy)methyl]-1H-benzimidazole]",< 30 nM,95 °C
"CN1CCC(OC(c2cccc(-c3cnc(O)nc3)c2)c2nc3ccccc3s2)CC1 (stereo not drawn) [Example 214, 5-{3-[benzothiazol-2-yl(1-methylpiperidin-4-yloxy)methyl]phenyl}pyrimidin-2-ol]",< 300 nM,170 °C
"CN1CCC(OC(c2cccc(SCCCN)c2)c2nc3ccccc3[nH]2)CC1 (stereo not drawn) [Example 368, 3-{3-[(1H-benzimidazol-2-yl)(1-methylpiperidin-4-yloxy)methyl]phenylsulfanyl}propylamine]",< 30 nM,126 °C
Cc1cccc(C(OC2CCN(C)CC2)c2nc3ccccc3[nH]2)c1O (stereo not drawn) [Example 586],< 30 nM,111 °C
CN1CCC(OC(c2nc3ccccc3[nH]2)c2c(F)cc(Cl)cc2F)CC1 (stereo not drawn) [Example 527],< 30 nM,195 °C
"CN1CCC(OC(c2cccc(SCCCCO)c2)c2nc3cc(F)ccc3[nH]2)CC1 (stereo not drawn) [Example 427, 4-{3-[(5-fluoro-1H-benzimidazol-2-yl)(1-methylpiperidin-4-yloxy)methyl]phenylsulfanyl}butan-1-ol]",< 300 nM,85 °C
"CN1CCC(OC(c2ccc(F)cc2)c2nc3ccccc3[nH]2)CC1 (stereo not drawn) [Example 179, 2-[(4-fluorophenyl)(1-methylpiperidin-4-yloxy)methyl]-1H-benzimidazole]",< 300 nM,131 °C
CCOc1ccc(O)c(C(OC2CCN(C)CC2)c2nc3ccccc3[nH]2)c1 (stereo not drawn) [Example 576],< 30 nM,213 °C
"CN1CCC(OC(c2cccc(I)c2)c2nc3ccccc3[nH]2)CC1 (stereo not drawn) [Example 51, 2-[(3-iodophenyl)(1-methylpiperidin-4-yloxy)methyl]-1H-benzimidazole]",< 30 nM,173.5 °C
"CN1CCC(OC(c2ccccc2)c2nc3ccccc3s2)CC1 (stereo not drawn) [Example 1, 2-[(1-methylpiperidin-4-yloxy)phenylmethyl]benzothiazole]",< 300 nM,115 °C
Cc1ccc(C(OC2CCN(C)CC2)c2nc3cc(F)ccc3[nH]2)c(F)c1 (stereo not drawn) [Example 548],< 30 nM,90 °C
COc1cccc(C(OC2CCN(C)CC2)c2nc3ccccc3[nH]2)c1O (stereo not drawn) [Example 592],< 300 nM,112 °C
"CN1CCC(COC(c2cccc(Br)c2)c2nc3ccccc3s2)C1 (single isomer, unassigned) (as salt: oxalate) [Example 464]",,68 °C
"CN1CCC(NC(c2cccc(SCc3ccccc3)c2)c2nc3ccccc3s2)CC1 (stereo not drawn) (as salt: oxalate) [Example 107, [benzothiazol-2-yl(3-benzylsulfanylphenyl)methyl](1-methylpiperidin-4-yl)amine]",,50 °C
"CN1CCC(OC(c2cccc(OCCCO)c2)c2nc3ccccc3s2)CC1 (stereo not drawn) (as salt: oxalate) [Example 258, 3-{3-[benzothiazol-2-yl(1-methylpiperidin-4-yloxy)methyl]phenoxy}propan-1-ol]",,79 °C
